Values of other authors, collected in patent publication US8318203B2, “Form of administration of racecadotril” (Bioprojet, priority 2006, dated 2012).

Assays:
[1] = racecadotrilate, active metabolite of the pro-drug racecadotril

Row | half-life [1] | solubility in water | Compound
1 | three to four |  | O=C(O)CNC(=O)C(CS)Cc1ccccc1 (racemic) [racecadotrilate]
2 |  | insoluble in water | CC(=O)SCC(Cc1ccccc1)C(=O)NCC(=O)OCc1ccccc1 (racemic) [racecadotril, benzyl (RS)-2-[[2-[(acetylsulphanyl)methyl]-3-phenylpropanoyl]amino]acetate]
